Experiments:
barnyardgrass [1] = assay: Test B pre-/postemergence herbicide test; type: in vivo, Echinochloa crus-galli; details: for Barnyardgrass plant response rating: postemergence, scale 0 (no effect) to 100 (complete control)
Method in brief: (§1)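 Seeds were planted and treated preemergence with compounds formulated in a non-phytotoxic solvent mixture containing surfactant, while plants at the 1- to 4-leaf stage (2 to 18 cm) received postemergence sprays. Flooded paddy plants were grown to the 2-leaf stage. After 13 to 15 days in a greenhouse, injury was visually rated 0–100 against untreated controls.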

Surinam grass = assay: Test B pre-/postemergence herbicide test; type: in vivo, Urochloa decumbens; details: for Surinam Grass plant response rating: postemergence
Method in brief: (§2)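 Plants compared with untreated controls 13–15 days post-treatment and given a visual 0–100 injury score. Applications: preemergence to seeds; postemergence at 1- to 4-leaf (2–18 cm); paddy species flooded, 2-leaf stage. Vehicle non-phytotoxic, surfactant included.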

cocklebur = assay: Test B pre-/postemergence herbicide test; type: in vivo, Xanthium strumarium; details: for Cocklebur plant response rating: postemergence, scale 0 (no effect) to 100 (complete control)
Method in brief: as §1

corn = assay: Test B pre-/postemergence herbicide test; type: in vivo, Zea mays; details: for Corn plant response rating: postemergence
Method in brief: as §2

large crabgrass = assay: Test B pre-/postemergence herbicide test; type: in vivo, Digitaria sanguinalis; details: for Crabgrass, Large plant response rating: postemergence
Method in brief: as §2

giant foxtail = assay: Test B pre-/postemergence herbicide test; type: in vivo, Setaria faberi; details: for Foxtail, Giant plant response rating: postemergence
Method in brief: as §2

lambsquarters = assay: Test B pre-/postemergence herbicide test; type: in vivo, Chenopodium album; details: for Lambsquarters plant response rating: postemergence
Method in brief: as §2

morningglory = assay: Test B pre-/postemergence herbicide test; type: in vivo, Ipomoea coccinea; details: for Morningglory plant response rating: postemergence
Method in brief: as §1

pigweed = assay: Test B pre-/postemergence herbicide test; type: in vivo, Amaranthus retroflexus; details: for Pigweed plant response rating: postemergence
Method in brief: as §2

rice [2] = assay: Test B pre-/postemergence herbicide test; type: in vivo, Oryza sativa; details: 0 = no effect, 100 = complete control, preemergence
Method in brief: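 Greenhouse pot assay with simultaneous preemergence (treated seed) and postemergence (2–18 cm seedlings) applications of surfactant-containing, non-phytotoxic solvent formulations. Response scored visually 13–15 days later on a 0–100 scale, 100 meaning complete control.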

velvetleaf = assay: Test B pre-/postemergence herbicide test; type: in vivo, Abutilon theophrasti; details: for Velvetleaf plant response rating: postemergence
Method in brief: as §2

blackgrass = assay: Test B postemergence herbicide test; type: in vivo, Alopecurus myosuroides; details: postemergence, visual rating, scale 0 (no effect) to 100 (complete control)
Method in brief: (§3)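 Postemergence plants were sprayed with formulated test chemicals at 2 to 18 cm height (1- to 4-leaf stage); paddy species were grown to the 2-leaf stage. After 13 to 15 days in a greenhouse, injury was rated visually against untreated controls on a 0–100 scale (0 = no effect, 100 = complete control).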

wheat = assay: Test B postemergence herbicide test; type: in vivo, Triticum aestivum; design: key to Wheat plant response rating: 0 = no effect, 100 = complete control; details: postemergence
Method in brief: (§4)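 Greenhouse test; postemergence application to plants at 1–4 leaves (2–18 cm); paddy species at 2 leaves; evaluated visually vs controls at 13–15 days; scale 0–100 (100 = complete control).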

wild oat = assay: Test B postemergence herbicide test; type: in vivo, Avena fatua; details: postemergence
Method in brief: as §4

rice [3] = assay: Test B flooded paddy test; type: in vivo, Oryza sativa; details: 1000 g ai/ha, scale 0 to 100 (0 no effect, 100 complete control)
Method in brief: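 Formulated test chemicals went onto postemergence plants measuring 2 to 18 cm, at one to four leaves. For the paddy assay, species had reached two leaves. Scoring took place 13–15 days later by eye, relative to untreated plants, using 0 for no effect up to 100 for full control.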

[4] = system: small flower umbrella sedge; assay: Test B flooded paddy test; type: in vivo, Cyperus difformis; details: 1000 g ai/ha, scale 0 to 100 (0 no effect, 100 complete control)
Method in brief: as §3

ducksalad [5] = assay: Test B flooded paddy test; type: in vivo, Heteranthera limosa; details: 1000 g ai/ha, scale 0 to 100 (0 no effect, 100 complete control)
Method in brief: as §3

barnyardgrass [6] = assay: Test B flooded paddy test; type: in vivo, Echinochloa crus-galli; details: 1000 g ai/ha, scale 0 to 100 (0 no effect, 100 complete control)
Method in brief: as §3

rice [7] = assay: Test C flooded paddy test; type: in vivo, Oryza sativa
Method in brief: (§5)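 Plants were grown to the 1- to 4-leaf stage (2–18 cm) and then treated postemergence, or grown to the 2-leaf stage for the flooded paddy test. They were held in a greenhouse for 12 to 14 days and then scored by eye against controls, where 0 is no effect and 100 is complete control.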

[8] = system: smallflower umbrella sedge; assay: Test C flooded paddy test; type: in vivo, Cyperus difformis
ducksalad [9] = assay: Test C flooded paddy test; type: in vivo, Heteranthera limosa
barnyardgrass [10] = assay: Test C flooded paddy test; type: in vivo, Echinochloa crus-galli
Method in brief: as §5

[11] = 125 g ai/ha, 0 = no effect, 100 = complete control, preemergence
[12] = 500 g ai/ha, visual rating, 0 = no effect, 100 = complete control, preemergence
[13] = 125 g ai/ha, visual rating, scale 0 (no effect) to 100 (complete control)
[14] = 500 g ai/ha, scale 0 to 100, 0 is no effect, 100 is complete control
[15] = 125 g ai/ha, scale 0 to 100 (0 no effect, 100 complete control)
[16] = 250 g ai/ha, scale of 0 to 100, 0 is no effect, 100 is complete control
[17] = 500 g ai/ha, visual rating after 12 to 14 days, scale 0 to 100 (0 no effect, 100 complete control)

Structure (SMILES): CCNC(=O)c1cc(NC(=O)c2cc(C(C)(C)C)nn2CC)c(F)cc1F [Compound 252]
- Barnyardgrass plant response rating (0 to 100 scale) (barnyardgrass [1]; [11]): 0
- Plant response rating, Barnyardgrass (barnyardgrass [1]; [12]): 70
- Barnyardgrass plant response rating (barnyardgrass [1]; 125 g ai/ha, visual rating): 0
- Barnyardgrass plant response rating (barnyardgrass [1]; 500 g ai/ha, visual rating): 10
- Surinam Grass plant response rating (0 to 100 scale) (Surinam grass; [11]): 10
- Plant response rating, Surinam Grass (Surinam grass; [12]): 70
- Surinam Grass plant response rating (Surinam grass; [13]): 10
- Surinam Grass plant response rating (Surinam grass; [14]): 20
- Cocklebur plant response rating (0 to 100 scale) (cocklebur; [11]): 0
- Plant response rating, Cocklebur (cocklebur; [12]): 0
- Cocklebur plant response rating (cocklebur; 125 g ai/ha, visual rating): 20
- Cocklebur plant response rating (cocklebur; 500 g ai/ha, visual rating): 40
- Corn plant response rating (0 to 100 scale) (corn; [11]): 0
- Plant response rating, Corn (corn; [12]): 60
- Corn plant response rating (corn; [13]): 10
- Corn plant response rating (corn; [14]): 10
- Crabgrass, Large plant response rating (0 to 100 scale) (large crabgrass; [11]): 80
- Plant response rating, Crabgrass, Large (large crabgrass; [12]): 100
- Crabgrass, Large plant response rating (large crabgrass; [13]): 0
- Crabgrass, Large plant response rating (large crabgrass; [14]): 10
- Foxtail, Giant plant response rating (0 to 100 scale) (giant foxtail; [11]): 10
- Plant response rating, Foxtail, Giant (giant foxtail; [12]): 90
- Foxtail, Giant plant response rating (giant foxtail; [13]): 20
- Foxtail, Giant plant response rating (giant foxtail; [14]): 30
- Plant response rating, Lambsquarters (lambsquarters; [12]): 100
- Lambsquarters plant response rating (lambsquarters; [13]): 30
- Lambsquarters plant response rating (lambsquarters; [14]): 30
- Morningglory plant response rating (0 to 100 scale) (morningglory; [11]): 0
- Plant response rating, Morningglory (morningglory; [12]): 0
- Morningglory plant response rating (morningglory; [13]): 20
- Morningglory plant response rating (morningglory; [14]): 20
- Plant response rating, Pigweed (pigweed; [12]): 100
- Pigweed plant response rating (pigweed; [13]): 20
- Pigweed plant response rating (pigweed; [14]): 30
- Rice plant response rating (0 to 100 scale) (rice [2]; 125 g ai/ha): 30
- Plant response rating, Rice (rice [2]; 500 g ai/ha, visual rating): 50
- Velvetleaf plant response rating (0 to 100 scale) (velvetleaf; [11]): 0
- Plant response rating, Velvetleaf (velvetleaf; [12]): 60
- Velvetleaf plant response rating (velvetleaf; [13]): 30
- Velvetleaf plant response rating (velvetleaf; [14]): 30
- Blackgrass plant response rating (blackgrass; 125 g ai/ha): 10
- Blackgrass plant response rating (blackgrass; 500 g ai/ha): 20
- Wheat plant response rating (wheat; [13]): 20
- Wheat plant response rating (wheat; [14]): 20
- Oat, Wild plant response rating (wild oat; [13]): 20
- Oat, Wild plant response rating (wild oat; [14]): 20
- Rice plant response rating (rice [3]): 80
- Sedge, Umbrella plant response rating [4]: 80
- Ducksalad plant response rating (ducksalad [5]): 90
- Barnyardgrass plant response rating (barnyardgrass [6]): 70
- Rice plant response rating (rice [7]; 62 g ai/ha, scale 0 to 100): 0
- Rice plant response rating (rice [7]; [15]): 45
- Rice plant response rating (rice [7]; [16]): 55
- Plant response rating, Rice (rice [7]; [17]): 60
- Sedge, Umbrella plant response rating ([8]; 62 g ai/ha, scale 0 to 100): 0
- Sedge, Umbrella plant response rating [8, 15]: 40
- Sedge, Umbrella plant response rating [8, 16]: 50
- Plant response rating, Sedge, Umbrella [8, 17]: 75
- Ducksalad plant response rating (ducksalad [9]; 62 g ai/ha, scale 0 to 100): 0
- Ducksalad plant response rating (ducksalad [9]; [15]): 0
- Ducksalad plant response rating (ducksalad [9]; [16]): 15
- Plant response rating, Ducksalad (ducksalad [9]; [17]): 80
- Barnyardgrass plant response rating (barnyardgrass [10]; 62 g ai/ha, scale 0 to 100 (0 no effect, 100 complete control)): 0
- Barnyardgrass plant response rating (barnyardgrass [10]; [15]): 0
- Barnyardgrass plant response rating (barnyardgrass [10]; [16]): 15
- Plant response rating, Barnyardgrass (barnyardgrass [10]; [17]): 45

Source: US20060069132A1, “Azolecarboxamide herbicides” (priority 2004, published 2006)
